Here are results for 30 molecules from US8765773B2, “Substituted hydroxamic acids and uses thereof” (Millennium Pharmaceuticals, Inc., priority 2010, dated 2014).

For the first assay, the target named is T1, purified human HDAC6 (Homo sapiens, UniProt Q9UBN7).
T1 construct: purchased BPS Bioscience 5006
T1 sequence (Q9UBN7 1-1215): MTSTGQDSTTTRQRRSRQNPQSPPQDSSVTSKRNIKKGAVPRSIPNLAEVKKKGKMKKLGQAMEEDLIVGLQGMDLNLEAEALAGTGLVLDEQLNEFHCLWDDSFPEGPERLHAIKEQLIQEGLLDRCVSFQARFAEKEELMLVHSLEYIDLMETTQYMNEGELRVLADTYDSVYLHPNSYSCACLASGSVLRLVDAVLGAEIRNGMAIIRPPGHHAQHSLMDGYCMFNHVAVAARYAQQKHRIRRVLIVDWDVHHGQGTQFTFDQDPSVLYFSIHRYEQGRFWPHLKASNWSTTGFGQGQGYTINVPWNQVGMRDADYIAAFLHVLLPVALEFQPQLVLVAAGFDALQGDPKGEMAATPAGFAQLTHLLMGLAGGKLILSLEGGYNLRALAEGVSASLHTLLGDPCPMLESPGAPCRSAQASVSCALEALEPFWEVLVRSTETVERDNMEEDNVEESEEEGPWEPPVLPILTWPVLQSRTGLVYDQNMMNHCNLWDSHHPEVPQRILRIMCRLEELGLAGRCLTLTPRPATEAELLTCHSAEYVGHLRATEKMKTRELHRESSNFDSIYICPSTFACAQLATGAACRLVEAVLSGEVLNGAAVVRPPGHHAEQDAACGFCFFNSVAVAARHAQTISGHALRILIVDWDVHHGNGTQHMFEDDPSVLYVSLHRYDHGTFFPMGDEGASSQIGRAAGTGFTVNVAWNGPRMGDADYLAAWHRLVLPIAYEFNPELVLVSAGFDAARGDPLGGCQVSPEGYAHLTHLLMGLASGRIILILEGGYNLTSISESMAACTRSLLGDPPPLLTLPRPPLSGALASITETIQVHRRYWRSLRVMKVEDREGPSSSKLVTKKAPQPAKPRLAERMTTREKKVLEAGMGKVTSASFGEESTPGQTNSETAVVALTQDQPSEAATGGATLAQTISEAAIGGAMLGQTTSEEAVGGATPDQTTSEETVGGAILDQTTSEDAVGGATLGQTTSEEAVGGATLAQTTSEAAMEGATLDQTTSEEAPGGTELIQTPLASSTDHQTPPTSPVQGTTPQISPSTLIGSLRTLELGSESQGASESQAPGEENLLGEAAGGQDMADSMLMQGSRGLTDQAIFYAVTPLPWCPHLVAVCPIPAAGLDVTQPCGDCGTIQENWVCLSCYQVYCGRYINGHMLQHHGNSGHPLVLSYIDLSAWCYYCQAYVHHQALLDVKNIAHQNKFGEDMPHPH
In words: HDAC6 Enzyme Assay. It is filed as biochemical. Conditions: compound concentration 0.37 μM, read-out: Percent Inhibition. In a few lines: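 Readout is AMC fluorescence (Ex 340 nm, Em 460 nm) after trypsin cleavage of the deacetylated Ac-Arg-Gly-Lys(Ac)-AMC product. Reaction: purified human HDAC6, compound or vehicle, 1 hour, 30° C, quenched by trichostatin A. Single-concentration percent inhibition or IC50 calculated versus DMSO-treated samples.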
A word on the inhibition: it is the change of the read-out against control, counted positive when it falls. `O=C(NO)c1ccc2c(=O)n(Cc3ccc(C(F)(F)F)cc3)c(-c3cnc(N4CCOCC4)s3)nc2c1` [Compound I-237, N-hydroxy-2-(2-morpholin-4-yl-1,3-thiazol-5-yl)-4-oxo-3-[4-(trifluoromethyl)benzyl]-3,4-dihydroquinazoline-7-carboxamide]: the inhibition at 0.37 µM was 88%. Same read-out and setting: the value for `CN(C)S(=O)(=O)c1cccc(-c2cccc(Cn3cnc4ccc(C(=O)NO)cc4c3=O)c2)c1` [Compound I-244, 3-({3′-[(dimethylamino)sulfonyl]biphenyl-3-yl}methyl)-N-hydroxy-4-oxo-3,4-dihydroquinazoline-6-carboxamide] was 89.4%; that for `CC(C)(C)OC(=O)NCCCn1ccc2ccc(C(=O)NO)cc2c1=O` [Compound I-245, tert-butyl {3-[7-[(hydroxyamino)carbonyl]-1-oxoisoquinolin-2(1H)-yl]propyl}carbamate] was 94.5%. On the same count and under the same terms, the value for `O=C(NO)c1ccc2ccn(-c3ccc(Cl)cc3)c(=O)c2c1` [Compound I-247, 2-(4-chlorophenyl)-N-hydroxy-1-oxo-1,2-dihydroisoquinoline-7-carboxamide] was 93%; that for `O=C(NO)c1ccc2ncn(Cc3cccc(-c4ccc(S(=O)(=O)N5CCCCC5)cc4)c3)c(=O)c2c1` [Compound I-254, N-hydroxy-4-oxo-3-{[4′-(piperidin-1-ylsulfonyl)biphenyl-3-yl]methyl}-3,4-dihydroquinazoline-6-carboxamide] was 94%.

Still in this assay, the particulars now being: compound concentration 0.412 μM, read-out: Percent Inhibition.
`COc1ccc2ccc(OCCCn3ccc4ccc(C(=O)NO)cc4c3=O)cc2c1` [Compound I-231, N-hydroxy-2-{3-[(7-methoxy-2-naphthyl)oxy]propyl}-1-oxo-1,2-dihydroisoquinoline-7-carboxamide]: the inhibition at 0.412 µM was 94.8%. Same read-out and setting: the figure for `O=C(NO)c1ccc2cc[nH]c(=O)c2c1` [Compound I-232, N-hydroxy-1-oxo-1,2-dihydroisoquinoline-7-carboxamide] is 70.9%; for `O=C(NO)c1ccc2c(=O)[nH]c(COc3ccccc3-n3cccc3)nc2c1` [Compound I-233, N-hydroxy-4-oxo-2-{[2-(1H-pyrrol-1-yl)phenoxy]methyl}-3,4-dihydroquinazoline-7-carboxamide] it is 91.1%; for `Cc1nn(-c2ccccc2)nc1Cn1ccc2ccc(C(=O)NO)cc2c1=O` [Compound I-234, N-hydroxy-2-[(5-methyl-2-phenyl-2H-1,2,3-triazol-4-yl)methyl]-1-oxo-1,2-dihydroisoquinoline-7-carboxamide] it is 98.6%.

For `O=C(NO)c1ccc2ccn(CCCOc3ccc(Oc4ccccc4)cc3)c(=O)c2c1` [Compound I-235, N-hydroxy-1-oxo-2-[3-(4-phenoxyphenoxy)propyl]-1,2-dihydroisoquinoline-7-carboxamide], the inhibition at 0.412 µM turned out to be 87.5%. In the case of `O=C(NO)c1ccc2ccn(CCc3ccc(Cl)cc3)c(=O)c2c1` [Compound I-236, 2-[2-(4-chlorophenyl)ethyl]-N-hydroxy-1-oxo-1,2-dihydroisoquinoline-7-carboxamide], the inhibition at 0.412 µM came to 96.2%. The same measure, in the same setting: the figure for `O=C(NO)c1ccc2c(=O)n(Cc3ccccc3)c(NCc3ccc(Cl)cc3)nc2c1` [Compound I-238, 3-benzyl-2-[(4-chlorobenzyl)amino]-N-hydroxy-4-oxo-3,4-dihydroquinazoline-7-carboxamide] is 86.2%.

For `O=C(NO)c1ccc2ncn(CCCc3ccccc3)c(=O)c2c1` [Compound I-239, N-hydroxy-4-oxo-3-(3-phenylpropyl)-3,4-dihydroquinazoline-6-carboxamide], the inhibition at 0.412 µM turned out to be 93.8%. Still for that read-out and setting: the value for `COc1ccccc1OCCCn1ccc2ccc(C(=O)NO)cc2c1=O` [Compound I-240, N-hydroxy-2-[3-(2-methoxyphenoxy)propyl]-1-oxo-1,2-dihydroisoquinoline-7-carboxamide] was 96%; that for `CC(C)(C)OC(=O)N1CCC(NC(=O)c2nc3cc(C(=O)NO)ccc3c(=O)[nH]2)CC1` [Compound I-241, tert-butyl 4-[({7-[(hydroxyamino)carbonyl]-4-oxo-3,4-dihydroquinazolin-2-yl}carbonyl)amino]piperidine-1-carboxylate] was 29.8%. On the same count and under the same terms, the figure for `Cn1cnc2cc(C(=O)NO)ccc2c1=O` [Compound I-242, N-hydroxy-3-methyl-4-oxo-3,4-dihydroquinazoline-7-carboxamide] is 68.8%. On to `Cn1c(NCCc2ccc(Cl)cc2)nc2ccc(C(=O)NO)cc2c1=O` [Compound I-243, 2-{[2-(4-chlorophenyl)ethyl]amino}-N-hydroxy-3-methyl-4-oxo-3,4-dihydroquinazoline-6-carboxamide], for which the inhibition at 0.412 µM stood at 60.8%. On the same count and under the same terms, the value for `O=C(NO)c1ccc2ccn(CCOc3ccc(Cl)cc3)c(=O)c2c1` [Compound I-246, 2-[2-(4-chlorophenoxy)ethyl]-N-hydroxy-1-oxo-1,2-dihydroisoquinoline-7-carboxamide] was 97.7%; that for `COc1ccccc1OCc1nc2cc(C(=O)NO)ccc2c(=O)[nH]1` [Compound I-248, N-hydroxy-2-[(2-methoxyphenoxy)methyl]-4-oxo-3,4-dihydroquinazoline-7-carboxamide] was 90%; that for `CS(=O)(=O)c1ccccc1OCc1nc2cc(C(=O)NO)ccc2c(=O)[nH]1` [Compound I-249, N-hydroxy-2-{[2-(methylsulfonyl)phenoxy]methyl}-4-oxo-3,4-dihydroquinazoline-7-carboxamide] was 56.5%. For the molecule `NC(=O)CCn1ccc2ccc(C(=O)NO)cc2c1=O` [Compound I-250, 2-(3-amino-3-oxopropyl)-N-hydroxy-1-oxo-1,2-dihydroisoquinoline-7-carboxamide], the inhibition at 0.412 µM is 77%. On the same count and under the same terms, the figure for `O=C(NO)c1ccc2ccn(CCc3cccc4ccccc34)c(=O)c2c1` [Compound I-251, N-hydroxy-2-[2-(1-naphthyl)ethyl]-1-oxo-1,2-dihydroisoquinoline-7-carboxamide] is 96.6%. Still for that read-out and setting: the figure for `O=C(NO)c1ccc2ccn(CCOc3ccccc3)c(=O)c2c1` [Compound I-252, N-hydroxy-1-oxo-2-(2-phenoxyethyl)-1,2-dihydroisoquinoline-7-carboxamide] is 97.6%; for `O=C(NO)c1ccc2ccn(CCN(Cc3cccc(C(F)(F)F)c3)Cc3cccc(C(F)(F)F)c3)c(=O)c2c1` [Compound I-253, 2-(2-{bis[3-(trifluoromethyl)benzyl]amino}ethyl)-N-hydroxy-1-oxo-1,2-dihydroisoquinoline-7-carboxamide] it is 57.5%; for `CCC(C)Cn1ccc2ccc(C(=O)NO)cc2c1=O` (stereo not drawn) [Compound I-255, N-hydroxy-2-(2-methylbutyl)-1-oxo-1,2-dihydroisoquinoline-7-carboxamide] it is 85.6%. Still for that read-out and setting: the value for `CC(C)n1cnc2cc(C(=O)NO)ccc2c1=O` [Compound I-256, N-hydroxy-3-isopropyl-4-oxo-3,4-dihydroquinazoline-7-carboxamide] was 72%. Take `COc1ccc(OCCn2ccc3ccc(C(=O)NO)cc3c2=O)cc1` [Compound I-257, N-hydroxy-2-[2-(4-methoxyphenoxy)ethyl]-1-oxo-1,2-dihydroisoquinoline-7-carboxamide]: the inhibition at 0.412 µM was determined as 96.8%. On the same count and under the same terms, the value for `O=C(NO)c1ccc2ccn(CCOc3cccc(OCc4ccccc4)c3)c(=O)c2c1` [Compound I-258, 2-{2-[3-(benzyloxy)phenoxy]ethyl}-N-hydroxy-1-oxo-1,2-dihydroisoquinoline-7-carboxamide] was 93.9%; that for `Cc1onc(-c2ccccc2)c1Cn1ccc2ccc(C(=O)NO)cc2c1=O` [Compound I-259, N-hydroxy-2-[(5-methyl-3-phenylisoxazol-4-yl)methyl]-1-oxo-1,2-dihydroisoquinoline-7-carboxamide] was 96.1%; that for `O=C(NO)c1ccc2c(=O)[nH]c(-c3cccc(C(F)(F)F)c3)nc2c1` [Compound I-260, N-hydroxy-4-oxo-2-[3-(trifluoromethyl)phenyl]-3,4-dihydroquinazoline-7-carboxamide] was 73.2%.
